Experimental data as given in patent US6806229B1, “Herbicidally active pyridine sulfonyl urea derivatives” (LG Life Sciences, priority 2003, dated 2004).

System: Oryza sativa
Experiment: Phytotoxicity to rice (direct-seeded and transplanted) in paddy condition, greenhouse pot test
Format: in vivo
Conditions: 10 g/ha; direct-seeded rice, treated 5 days after sowing; visual rating after two weeks
Excerpt: (§1) Pots having a surface area of 150 cm^2 were filled with a small amount of fertilizer and sterilized paddy field soil in a muddy state with a depth of 5 cm. Five (5) seeds of pre-germinated rice were directly sown on the soil surface and three (3) rice seedlings (2˜3 leaves) prepared in advance were transplanted in a depth of 2 cm in each pot. In another pot, seeds of barnyardgrass were sown and incorporated into the surface layer of soil. After sowing and transplanting of rice plant and sowing of barnyardgrass, the pots were flooded with water 3 cm deep and kept in a greenhouse. The rice plant was treated with the chemicals 5 days after sowing or transplanting, and barnyardgrass was treated with the chemicals at the pre-emergence (5 days after from sowing) and post-emergence stage (at the three-leaf stage, usually after 15 days from sowing).
(§2) Suitable herbicidal compositions were prepared by mixing and dissolving 1 part by weight of the active compound with 5 parts by weight of acetone and 1 part by weight of alkylaryl polyglycolether as an emulsifier and then diluting with water to the predetermined concentration. Application was made by dropping the herbicide solutions onto the water surface of the pots.

**Q.** With COc1cc(OC)nc(NC(=O)NS(=O)(=O)c2ccccc2[C@@H](O)[C@H](C)F)n1 [Standard Compound A, reference compound] as the molecule, how does the “Phytotoxicity, Oryza sativa, Seed” value read?
**A.** 40%

**Q.** For COc1cc(OC)nc(NC(=O)NS(=O)(=O)c2cccnc2[C@@H](OC(C)=O)[C@H](C)F)n1 [Standard Compound D, reference compound], which “Phytotoxicity, Oryza sativa, Seed” value is on record?
**A.** 10%

Same assay, conditions: 10 g/ha; transplanted rice seedlings, treated 5 days after transplanting; visual rating after two weeks

**Q.** With COc1cc(OC)nc(NC(=O)NS(=O)(=O)c2ccccc2[C@@H](O)[C@H](C)F)n1 [Standard Compound A, reference compound] as the molecule, how does the “Phytotoxicity, Oryza sativa, Transplanted” value (“Phytotoxicity … Transplanted” for short) read?
**A.** 20%

**Q.** How did the “Phytotoxicity … Transplanted” value turn out when COc1cc(OC)nc(NC(=O)NS(=O)(=O)c2cccnc2[C@@H](OC(C)=O)[C@H](C)F)n1 [Standard Compound D, reference compound] was run?
**A.** 0%

Same assay, conditions: 20 g/ha; direct-seeded rice, treated 5 days after sowing; visual rating after two weeks

**Q.** How did the “Phytotoxicity, Oryza sativa, Seed” value turn out when COc1cc(OC)nc(NC(=O)NS(=O)(=O)c2ccccc2[C@@H](O)[C@H](C)F)n1 [Standard Compound A, reference compound] was run?
**A.** 40%

**Q.** How did the “Phytotoxicity, Oryza sativa, Seed” value turn out when COc1cc(OC)nc(NC(=O)NS(=O)(=O)c2cccnc2[C@@H](OC(C)=O)[C@H](C)F)n1 [Standard Compound D, reference compound] was run?
**A.** 20%

Same assay, conditions: 20 g/ha; transplanted rice seedlings, treated 5 days after transplanting; visual rating after two weeks

**Q.** With COc1cc(OC)nc(NC(=O)NS(=O)(=O)c2ccccc2[C@@H](O)[C@H](C)F)n1 [Standard Compound A, reference compound] as the molecule, how does the “Phytotoxicity … Transplanted” value read?
**A.** 30%

**Q.** COc1cc(OC)nc(NC(=O)NS(=O)(=O)c2cccnc2[C@@H](OC(C)=O)[C@H](C)F)n1 [Standard Compound D, reference compound] was tested. Which “Phytotoxicity … Transplanted” value did it give?
**A.** 10%

Same assay, conditions: 40 g/ha; direct-seeded rice, treated 5 days after sowing; visual rating after two weeks

**Q.** For COc1cc(OC)nc(NC(=O)NS(=O)(=O)c2ccccc2[C@@H](O)[C@H](C)F)n1 [Standard Compound A, reference compound], which “Phytotoxicity, Oryza sativa, Seed” value is on record?
**A.** 50%

**Q.** For COc1cc(OC)nc(NC(=O)NS(=O)(=O)c2cccnc2[C@@H](OC(C)=O)[C@H](C)F)n1 [Standard Compound D, reference compound], which “Phytotoxicity, Oryza sativa, Seed” value is on record?
**A.** 30%

Same assay, conditions: 40 g/ha; transplanted rice seedlings, treated 5 days after transplanting; visual rating after two weeks

**Q.** With COc1cc(OC)nc(NC(=O)NS(=O)(=O)c2ccccc2[C@@H](O)[C@H](C)F)n1 [Standard Compound A, reference compound] as the molecule, how does the “Phytotoxicity … Transplanted” value read?
**A.** 40%

**Q.** COc1cc(OC)nc(NC(=O)NS(=O)(=O)c2cccnc2[C@@H](OC(C)=O)[C@H](C)F)n1 [Standard Compound D, reference compound] was tested. Which “Phytotoxicity … Transplanted” value did it give?
**A.** 20%

Same assay, conditions: 80 g/ha; direct-seeded rice, treated 5 days after sowing; visual rating after two weeks, 0 = none, 100 = complete death

**Q.** For COc1cc(OC)nc(NC(=O)NS(=O)(=O)c2ccccc2[C@@H](O)[C@H](C)F)n1 [Standard Compound A, reference compound], which “Phytotoxicity, Oryza sativa, Seed” value is on record?
**A.** 80%

**Q.** For COc1cc(OC)nc(NC(=O)NS(=O)(=O)c2cccnc2[C@@H](OC(C)=O)[C@H](C)F)n1 [Standard Compound D, reference compound], which “Phytotoxicity, Oryza sativa, Seed” value is on record?
**A.** 60%

Same assay, conditions: 80 g/ha; transplanted rice seedlings, treated 5 days after transplanting; visual rating after two weeks

**Q.** How did the “Phytotoxicity … Transplanted” value turn out when COc1cc(OC)nc(NC(=O)NS(=O)(=O)c2ccccc2[C@@H](O)[C@H](C)F)n1 [Standard Compound A, reference compound] was run?
**A.** 70%

**Q.** Which “Phytotoxicity … Transplanted” value does the source give for COc1cc(OC)nc(NC(=O)NS(=O)(=O)c2cccnc2[C@@H](OC(C)=O)[C@H](C)F)n1 [Standard Compound D, reference compound] here?
**A.** 50%

System: Echinochloa crus-galli
Experiment: Herbicidal activity to barnyardgrass in paddy condition, pre- and post-emergence, greenhouse pot test
Format: in vivo
Conditions: Echinochloa crus-galli, 336 h; 5 g/ha; post-emergence, three-leaf stage; visual rating after two weeks; read-out: Herbicidal activity, Echinochloa crus-galli, Post-emergence (3-Leaf stage)
Excerpt: as §1, §2

**Q.** COc1cc(OC)nc(NC(=O)NS(=O)(=O)c2ccccc2[C@@H](O)[C@H](C)F)n1 [Standard Compound A, reference compound] was tested. Which pest or weed control at 5 g/ha did it give?
**A.** 60%

**Q.** For COc1cc(OC)nc(NC(=O)NS(=O)(=O)c2cccnc2[C@@H](OC(C)=O)[C@H](C)F)n1 [Standard Compound D, reference compound], which pest or weed control at 5 g/ha is on record?
**A.** 50%

Same assay, conditions: Echinochloa crus-galli, 336 h; 5 g/ha; pre-emergence (5 days after sowing); visual rating after two weeks; read-out: Herbicidal activity, Echinochloa crus-galli, Pre-emergence

**Q.** COc1cc(OC)nc(NC(=O)NS(=O)(=O)c2ccccc2[C@@H](O)[C@H](C)F)n1 [Standard Compound A, reference compound] was tested. Which pest or weed control at 5 g/ha did it give?
**A.** 60%

**Q.** COc1cc(OC)nc(NC(=O)NS(=O)(=O)c2cccnc2[C@@H](OC(C)=O)[C@H](C)F)n1 [Standard Compound D, reference compound] was tested. Which pest or weed control at 5 g/ha did it give?
**A.** 30%

Same assay, conditions: Echinochloa crus-galli, 336 h; 10 g/ha; post-emergence, three-leaf stage; visual rating after two weeks; read-out: Herbicidal activity, Echinochloa crus-galli, Post-emergence (3-Leaf stage)

**Q.** With COc1cc(OC)nc(NC(=O)NS(=O)(=O)c2ccccc2[C@@H](O)[C@H](C)F)n1 [Standard Compound A, reference compound] as the molecule, how does the pest or weed control at 10 g/ha read?
**A.** 90%

**Q.** COc1cc(OC)nc(NC(=O)NS(=O)(=O)c2cccnc2[C@@H](OC(C)=O)[C@H](C)F)n1 [Standard Compound D, reference compound] was tested. Which pest or weed control at 10 g/ha did it give?
**A.** 90%

Same assay, conditions: Echinochloa crus-galli, 336 h; 10 g/ha; pre-emergence (5 days after sowing); visual rating after two weeks; read-out: Herbicidal activity, Echinochloa crus-galli, Pre-emergence

**Q.** With COc1cc(OC)nc(NC(=O)NS(=O)(=O)c2ccccc2[C@@H](O)[C@H](C)F)n1 [Standard Compound A, reference compound] as the molecule, how does the pest or weed control at 10 g/ha read?
**A.** 100%

**Q.** Which pest or weed control at 10 g/ha does the source give for COc1cc(OC)nc(NC(=O)NS(=O)(=O)c2cccnc2[C@@H](OC(C)=O)[C@H](C)F)n1 [Standard Compound D, reference compound] here?
**A.** 100%

Same assay, conditions: Echinochloa crus-galli, 336 h; 20 g/ha; post-emergence, three-leaf stage; visual rating after two weeks; read-out: Herbicidal activity, Echinochloa crus-galli, Post-emergence (3-Leaf stage)

**Q.** COc1cc(OC)nc(NC(=O)NS(=O)(=O)c2ccccc2[C@@H](O)[C@H](C)F)n1 [Standard Compound A, reference compound] was tested. Which pest or weed control at 20 g/ha did it give?
**A.** 95%

**Q.** For COc1cc(OC)nc(NC(=O)NS(=O)(=O)c2cccnc2[C@@H](OC(C)=O)[C@H](C)F)n1 [Standard Compound D, reference compound], which pest or weed control at 20 g/ha is on record?
**A.** 100%

Same assay, conditions: Echinochloa crus-galli, 336 h; 20 g/ha; pre-emergence (5 days after sowing); visual rating after two weeks; read-out: Herbicidal activity, Echinochloa crus-galli, Pre-emergence

**Q.** How did the pest or weed control at 20 g/ha turn out when COc1cc(OC)nc(NC(=O)NS(=O)(=O)c2ccccc2[C@@H](O)[C@H](C)F)n1 [Standard Compound A, reference compound] was run?
**A.** 100%

**Q.** How did the pest or weed control at 20 g/ha turn out when COc1cc(OC)nc(NC(=O)NS(=O)(=O)c2cccnc2[C@@H](OC(C)=O)[C@H](C)F)n1 [Standard Compound D, reference compound] was run?
**A.** 100%

Same assay, conditions: Echinochloa crus-galli, 336 h; 30 g/ha; post-emergence, three-leaf stage; visual rating after two weeks; read-out: Herbicidal activity, Echinochloa crus-galli, Post-emergence (3-Leaf stage)

**Q.** For COc1cc(OC)nc(NC(=O)NS(=O)(=O)c2ccccc2[C@@H](O)[C@H](C)F)n1 [Standard Compound A, reference compound], which pest or weed control at 30 g/ha is on record?
**A.** 100%

**Q.** For COc1cc(OC)nc(NC(=O)NS(=O)(=O)c2cccnc2[C@@H](OC(C)=O)[C@H](C)F)n1 [Standard Compound D, reference compound], which pest or weed control at 30 g/ha is on record?
**A.** 100%

Same assay, conditions: Echinochloa crus-galli, 336 h; 30 g/ha; pre-emergence (5 days after sowing); visual rating after two weeks, 0 = no activity, 100 = complete death; read-out: Herbicidal activity, Echinochloa crus-galli, Pre-emergence

**Q.** How did the pest or weed control at 30 g/ha turn out when COc1cc(OC)nc(NC(=O)NS(=O)(=O)c2ccccc2[C@@H](O)[C@H](C)F)n1 [Standard Compound A, reference compound] was run?
**A.** 100%

**Q.** For COc1cc(OC)nc(NC(=O)NS(=O)(=O)c2cccnc2[C@@H](OC(C)=O)[C@H](C)F)n1 [Standard Compound D, reference compound], which pest or weed control at 30 g/ha is on record?
**A.** 100%
